Assay results reported in publication PMC7962536, “Isolation, Characterization, and Medicinal Potential of Polysaccharides of Morchella esculenta” (Molecules, 2021).
Values after ≈ are worked out from the molar mass of the structure shown.

Target: T1, tyrosinase enzyme from mushrooms
T1 construct: gene PPO1; native mushroom tyrosinase preparation
Experiment: spectrophotometric L-DOPA oxidation, […] nm
Format: biochemical
Settings: L-DOPA as substrate, sodium phosphate buffer pH 6.8, 37 °C, 10 min preincubation; unreliable: extrapolated below the lowest listed concentration 12.5 µg/mL

IC50: 8.25 ± 0.36 µg/mL (≈ 58.1 µM)
Compound: O=c1cc(CO)occ1O [kojic acid]
